Experimental data published in patent US20240254118A1, “PRMT5 INHIBITORS AND USES THEREOF” (Gilead Sciences, Inc., priority 2022, published 2024).

Columns and labels:
[1] = tested on: SDMA signal (PRMT5 inhibition) in HCT116 MTAP-deleted cells; test: Symmetric di-methyl arginine image-based high content screen assay (SDMA assay), HCT116 MTAP-deleted; type: cell-based; conditions: SDMA assay; for EC50: Homo sapiens, HCT-116, 72 h, 3 days of treatment, cell line not given, taken as HCT116 MTAP-deleted, read-out: EC50 (SDMA assay); for EC50 selectivity (SDMA assay): taken as HCT116 WT versus MTAP-deleted
Outline: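 Read-out: per-cell mean SDMA immunofluorescence (Alexa Fluor 488 secondary), cells segmented by DAPI on a high-content imager. Compound exposure in HCT116 MTAP-deleted cells lasted until fixation on Day 3; overnight 4° C primary anti-SDMA antibody staining.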

[2] = tested on: HCT116 MTAP-deleted cells; test: Cell viability assay (CellTiter-Glo, 7 days), HCT116 MTAP-deleted; conditions: Homo sapiens, HCT-116, 168 h
Protocol: Control compounds were analyzed in parallel each time for quality control.
In Brief, on Day −1, a serial dilution of stock compounds in DMSO was performed using BioMek liquid handlers and dispensed using Echo acoustic dispenser into 384 well plates. Both tool compounds and sample compounds were spotted in the same plate for a dose response of PRMT5 inhibitors. Compound plates were stored as frozen until the cells were ready for seeding.
On Day 0, 100 HCT WT or HCT116 MTAP-deleted cells were seeded in compound-containing 384 well plates (50 μl per well) in RPMI 1640 media supplemented with 10% heat inactivated fetal bovine serum, Glutamax and penicillin streptomycin using EL460 liquid dispenser 5 μl cassette (BioTek, part no. 7170011). After equilibrating the plate in room temperature, the cells were incubated for 7 days inside the sealed incubator set at 37 °C with 90% humidity and 5% CO2.
On Day 7, the viability of cells was measured using a CTG assay kit (CellTitre-Glo; Promega cat no. G7573). Shortly, 40 μl per well of luminescent cell viability assay reagent were dispensed using EL460 liquid dispenser 5 μl cassette. CTG luminescence signal was measured using an EnVision plate reader (PerkinElmer) in accordance with manufacturer's instruction. The CC50 values for each compound after 7 days of treatment were calculated using 4 parameter non-linear logistical curve fit.

Structure (SMILES)	EC50 [1] [nM]	EC50 selectivity (SDMA assay) [1]	CC50 [2] [nM]
CN(C(=O)[C@H]1C[C@H]1F)N(Cc1ncc(C(F)(F)F)cc1F)C(=O)c1ccc2nc(N)c3cnn(C)c3c2c1 [Example 262, 4-amino-N-((3-fluoro-5-(trifluoromethyl)pyridin-2-yl)methyl)-N′-((1R,2R)-2-fluorocyclopropane-1-carbonyl)-N′,1-dimethyl-1H-pyrazolo[4,3-c]quinoline-8-carbohydrazide]	1 to 5	169	< 100
[2H]C([2H])(c1ccc(C(F)(F)F)cc1F)N(C(=O)c1ccc2nc(N)c3cnn(C)c3c2c1)N(C)C(=O)C1CC1 [Example 263, 4-amino-N′-(cyclopropanecarbonyl)-N-((2-fluoro-4-(trifluoromethyl)phenyl)methyl-d2)-N′,1-dimethyl-1H-pyrazolo[4,3-c]quinoline-8-carbohydrazide]	< 1	46	< 100
[2H]C([2H])(c1ccc(C(F)(F)F)cc1F)N(C(=O)c1ccc2nc(N)c3cnn(C)c3c2c1)N(C)C(C)=O [Example 264, N′-acetyl-4-amino-N-((2-fluoro-4-(trifluoromethyl)phenyl)methyl-d2)-N′,1-dimethyl-1H-pyrazolo[4,3-c]quinoline-8-carbohydrazide]	< 1	281	< 100
CCC(=O)N(C)N(Cc1ncc(C(F)(F)F)cc1F)C(=O)c1ccc2nc(N)c3cnn(C)c3c2c1 [Example 265, 4-amino-N-((3-fluoro-5-(trifluoromethyl)pyridin-2-yl)methyl)-N′,1-dimethyl-N′-propionyl-1H-pyrazolo[4,3-c]quinoline-8-carbohydrazide]	< 1	209	< 100
[2H]C([2H])([2H])N(C(C)=O)N(Cc1ccc(C(F)(F)F)cc1F)C(=O)c1ccc2nc(N)c3cnn(C([2H])([2H])[2H])c3c2c1 [Example 266, N′-acetyl-4-amino-N-(2-fluoro-4-(trifluoromethyl)benzyl)-N′,1-bis(methyl-d3)-1H-pyrazolo[4,3-c]quinoline-8-carbohydrazide]	< 1	63	< 100
Cc1cc(CN(C(=O)c2ccc3nc(N)c4cnn(C)c4c3c2)N(C)C(=O)C2CC2)ncc1Cl [Example 267, 4-amino-N-((5-chloro-4-methylpyridin-2-yl)methyl)-N′-(cyclopropanecarbonyl)-N′,1-dimethyl-1H-pyrazolo[4,3-c]quinoline-8-carbohydrazide]	1 to 5	223	< 100
[2H]C([2H])([2H])n1ncc2c(N)nc3ccc(C(=O)N(Cc4ccc(C(F)(F)F)cc4F)N(C)C(C)=O)cc3c21 [Example 270, N′-acetyl-4-amino-N-(2-fluoro-4-(trifluoromethyl)benzyl)-N′-methyl-1-(methyl-d3)-1H-pyrazolo[4,3-c]quinoline-8-carbohydrazide]	< 1	129	< 100
CC(=O)N(C)N(Cc1ncc(C(F)(F)F)cc1F)C(=O)c1ccc2nc(N)c3cnn(C)c3c2c1 [Example 271, N′-acetyl-4-amino-N-((3-fluoro-5-(trifluoromethyl)pyridin-2-yl)methyl)-N′,1-dimethyl-1H-pyrazolo[4,3-c]quinoline-8-carbohydrazide]	< 1	86	< 100
CN(C(=O)C1CC1)N(Cc1cc(F)c(F)cc1F)C(=O)c1ccc2nc(N)c3cnn(C)c3c2c1 [Example 272, 4-amino-N′-(cyclopropanecarbonyl)-N′,1-dimethyl-N-(2,4,5-trifluorobenzyl)-1H-pyrazolo[4,3-c]quinoline-8-carbohydrazide]	< 1	466	< 100
CN(C(=O)C1CC1)N(Cc1ncc(C(F)(F)F)cc1F)C(=O)c1ccc2nc(N)c3cnn(C)c3c2c1 [Example 274, 4-amino-N′-(cyclopropanecarbonyl)-N-((3-fluoro-5-(trifluoromethyl)pyridin-2-yl)methyl)-N′,1-dimethyl-1H-pyrazolo[4,3-c]quinoline-8-carbohydrazide]	< 1	243	< 100
Cc1nc2ccc(CN(C(=O)c3ccc4nc(N)c5cnn(C)c5c4c3)N(C)C(=O)C3CC3)cc2s1 [Example 275, 4-amino-N′-(cyclopropanecarbonyl)-N′,1-dimethyl-N-((2-methylbenzo[d]thiazol-6-yl)methyl)-1H-pyrazolo[4,3-c]quinoline-8-carbohydrazide]	< 1	129	< 100
CN(C(=O)[C@@H]1C[C@@H]1F)N(Cc1ccc(C(F)(F)F)cn1)C(=O)c1ccc2nc(N)c3cnn(C)c3c2c1 [Example 276, 4-amino-N′-((1S,2S)-2-fluorocyclopropane-1-carbonyl)-N′,1-dimethyl-N-((5-(trifluoromethyl)pyridin-2-yl)methyl)-1H-pyrazolo[4,3-c]quinoline-8-carbohydrazide]	1 to 5	166	< 100
Cn1ncc2c(N)nc3ccc(C(=O)N(Cc4ccc(C(F)(F)F)cn4)NC(=O)OC(C)(C)C)cc3c21 [Example 277, tert-butyl 2-(4-amino-1-methyl-1H-pyrazolo[4,3-c]quinoline-8-carbonyl)-2-((5-(trifluoromethyl)pyridin-2-yl)methyl)hydrazine-1-carboxylate]	1 to 5	229	< 100
[2H]C([2H])([2H])N(C(=O)C1CC1)N(Cc1ncc(C(F)(F)F)cc1F)C(=O)c1ccc2nc(N)c3cnn(C([2H])([2H])[2H])c3c2c1 [Example 278, 4-amino-N′-(cyclopropanecarbonyl)-N-((3-fluoro-5-(trifluoromethyl)pyridin-2-yl)methyl)-N′,1-bis(methyl-d3)-1H-pyrazolo[4,3-c]quinoline-8-carbohydrazide]	< 1	121	< 100
CN(C(=O)C1CC1)N(Cc1cnc(C(F)(F)F)c(F)c1)C(=O)c1ccc2nc(N)c3cnn(C)c3c2c1 [Example 279, 4-amino-N′-(cyclopropanecarbonyl)-N-((5-fluoro-6-(trifluoromethyl)pyridin-3-yl)methyl)-N′,1-dimethyl-1H-pyrazolo[4,3-c]quinoline-8-carbohydrazide]	1 to 5	494	100 to 1000
CCC(=O)N(CC)N(Cc1ccc(C(F)(F)F)cn1)C(=O)c1cc2c(cc1F)nc(N)c1cnn(C)c12 [Example 280, 4-amino-N′-ethyl-7-fluoro-1-methyl-N′-propionyl-N-((5-(trifluoromethyl)pyridin-2-yl)methyl)-1H-pyrazolo[4,3-c]quinoline-8-carbohydrazide]	1 to 5	31	< 100
CN(C(=O)C1CC1)N(Cc1ccc(C(F)(F)F)cn1)C(=O)c1ccc2nc(N)c3cn[nH]c3c2c1 [Example 281, 4-amino-N′-(cyclopropanecarbonyl)-N′-methyl-N-((5-(trifluoromethyl)pyridin-2-yl)methyl)-1H-pyrazolo[4,3-c]quinoline-8-carbohydrazide]	1 to 5	70	< 100
